Data set [1] is described as follows: Ratio of drug level in brain to plasma in Long Evans rat at 10 mg/kg, po. Conditions: read-out: BPR. On the set-up: dose 10 mg/kg, route oral. Format: ADME, organism-based.
The nature of data set [2]: AUC (0 to infinity) in Long Evans rat at 20 mg/kg, po. Format: ADME, organism-based. More on the design: time infinity, dose 20 mg/kg, route oral. To be noted: plasma.
Data set [3] is described as follows: Intrinsic clearance in rat liver microsomes assessed per mg of protein at 1 uM by UPLC/TOF-MS analysis. The data set is classed as ADME, Microsome. To be noted: read-out: CLH. On the technique in general: Liver microsomes are a subcellular fraction often used to study metabolism.
The nature of data set [4]: Oral bioavailability in Long Evans rat at 20 mg/kg. Format: ADME, organism-based. To be noted: in vivo.
The nature of data set [5]: Solubility of the compound at pseudo-thermodynamic equilibrium after 24 hrs by UPLC/UV/TOF-MS analysis at pH 7.4. Conditions: buffer. The data set is classed as physicochemical.
Data set [6] in a line: Tmax in Long Evans rat at 20 mg/kg, po. Format: ADME, organism-based. More on the design: dose 20 mg/kg, route oral. To be noted: in vivo.
A short description of data set [7]: Cmax in Long Evans rat at 20 mg/kg, po. Conditions: in vivo. Format: ADME, organism-based. On the set-up: dose 20 mg/kg, route oral.
Data set [8] can be described thus: Cmax in Long Evans rat brain at 10 mg/kg, po. The data set is classed as ADME, organism-based. On the set-up: dose 10 mg/kg, route oral.
Data set [9] is described as follows: Metabolic stability in rat plasma assessed as compound remaining at 250 uM after 3 hrs by LC-ESI-MS-MS analysis. Conditions: read-out: Stability. The data set is classed as ADME, cell-free.

What is called AUC(0-inf) is the area under the concentration-time curve extrapolated to infinity. By bioavailability is commonly meant the share of a dose that reaches the circulation, judged against a reference dose that is usually intravenous. A lower bioavailability goes with little systemic uptake. In general, solubility (thermodynamic) refers to the concentration in solution at equilibrium with solid. Broadly, the Tmax is the time from dosing to the highest level. In general, Cmax refers to the highest concentration seen after dosing.

Converted amounts (≈) assume the structure as drawn. Bounds are passed on as bounds.

Regarding `COc1ccc(-c2cc(NC(=O)CCCCN3CCCN(C(C)=O)CC3)[nH]n2)cc1`, the Kp in data set [1] was 0.38. For the same compound, the total exposure AUC(0-inf) in data set [2] was found to be 1.37 µM·h. Moreover, the microsomal CLint at 1 µM in [3] was 13 µL/min/mg. For the same compound, the bioavailability in data set [4] was 12%. In [5], this compound had a thermodynamic solubility at 24 h of 170 µM (≈ 70.3 µg/mL). Moreover, the Tmax in [6] was found to be 49.8 min. The peak concentration (Cmax) in [7] worked out at 180 nM; in data set [8], 3.7 ng/g. Besides, the remaining at 3 h, 250 µM in [9] is 55%. Turning to `COc1ccc(-c2n[nH]c(NC(=O)CCCCN3CCCN(C(C)=O)CC3)c2C)cc1`, in data set [5], the solubility (thermodynamic) at 24 h is 151 µM (≈ 64.6 µg/mL). Take `COc1ccc(-c2cc(NC(=O)C(C)CCCN3CCCN(C(C)=O)CC3)[nH]n2)cc1` (stereo unspecified): in data set [5], the thermodynamic solubility at 24 h was 128 µM (≈ 54.7 µg/mL). The remaining at 3 h, 250 µM in data set [9] was above 99%. Turning to `COc1ccc(-c2c[nH]c(NC(=O)CCCCN3CCCN(C(C)=O)CC3)n2)cc1`, the solubility (thermodynamic) at 24 h in data set [5] came to 193 µM (≈ 79.8 µg/mL).

For the compound `O=C(CCCCN1CCCCC1)Nc1cc(-c2ccc(Cl)cc2)n[nH]1`, the solubility (thermodynamic) at 24 h in [5] is 182 µM (≈ 65.7 µg/mL). The compound `COc1ccc(-c2cc(NC(=O)CCCCN3CCCCC3)[nH]n2)cc1` yielded a solubility (thermodynamic) at 24 h in data set [5] of 219 µM (≈ 78.1 µg/mL).

`COc1cccc(-c2cc(NC(=O)CCCCN3CCCCC3)[nH]n2)c1` gave a thermodynamic solubility at 24 h in [5] of 213 µM (≈ 75.9 µg/mL). The compound `COc1ccccc1-c1cc(NC(=O)CCCCN2CCCCC2)[nH]n1` displayed a solubility (thermodynamic) at 24 h in data set [5] of 178 µM (≈ 63.5 µg/mL). In [5], `COc1ccc(-c2n[nH]c(NC(=O)CCCCN3CCCCC3)c2C)cc1` came in with a solubility (thermodynamic) at 24 h of 188 µM (≈ 69.7 µg/mL). In the case of `O=C(CCCCN1CCCCC1)Nc1cc(-c2ccc(F)cc2)n[nH]1`, the solubility (thermodynamic) at 24 h in data set [5] came to 237 µM (≈ 81.6 µg/mL). Turning to `O=C(CCCCN1CCCCC1)Nc1cc(-c2ccc(Br)cc2)n[nH]1`, in [5], the thermodynamic solubility at 24 h was determined as 144 µM (≈ 58.4 µg/mL). Compound `O=C(CCCCN1CCCCC1)Nc1cc(-c2ccncc2)n[nH]1` displayed a thermodynamic solubility at 24 h in [5] of 226 µM (≈ 74 µg/mL). Compound `O=C(CCCCN1CCCCC1)Nc1cc(-c2ccc(C(F)(F)F)cc2)n[nH]1` registered a thermodynamic solubility at 24 h in data set [5] of 157 µM (≈ 61.9 µg/mL). In data set [5], `O=C(CCCCN1CCCCC1)Nc1cc(-c2ccco2)n[nH]1` returned a solubility (thermodynamic) at 24 h of 250 µM (≈ 79.1 µg/mL).

`COc1ccc(-c2cc(NC(=O)CCCCN3CCC(C)CC3)n[nH]2)cc1`: the thermodynamic solubility at 24 h in data set [5] was 198 µM (≈ 73.4 µg/mL). For the compound `COc1ccc(-c2cc(NC(=O)CCCCN3CCOCC3)[nH]n2)cc1`, the solubility (thermodynamic) at 24 h in data set [5] came to 176 µM (≈ 63.1 µg/mL). Same read-out and setting: the value for `COc1ccc(-c2cc(NC(=O)CCCCN3CCNC(=O)C3)[nH]n2)cc1` was 92 µM (≈ 34.2 µg/mL); that for `COc1ccc(-c2cc(NC(=O)CCCCN3CCC(C(N)=O)CC3)[nH]n2)cc1` was 184 µM (≈ 73.5 µg/mL). Regarding `COc1ccc(-c2cc(NC(=O)CCCCN3CCCCCC3)n[nH]2)cc1`, the thermodynamic solubility at 24 h in data set [5] came to 133 µM (≈ 49.3 µg/mL). In [5], `COc1ccc(-c2cc(NC(=O)CCCCN3CCCOCC3)[nH]n2)cc1` had a thermodynamic solubility at 24 h of 176 µM (≈ 65.6 µg/mL).

In [5], `COc1ccc(-c2cc(NC(=O)CCCCN3CCCNCC3)[nH]n2)cc1` came in with a solubility (thermodynamic) at 24 h of 153 µM (≈ 56.8 µg/mL). With `COc1ccc(-c2cc(NC(=O)CCCCN3CCNC(=O)CC3)[nH]n2)cc1`, the solubility (thermodynamic) at 24 h in data set [5] came to 117 µM (≈ 45.1 µg/mL).

The values are drawn from ChEMBL document CHEMBL2086339 (J Med Chem, 2012).
